Data on 32 compounds can be found in ChEMBL document CHEMBL1137268, “2-Aminoquinoline melanin-concentrating hormone (MCH)1R antagonists” (Bioorg Med Chem Lett, 2006).

The inhibition is the share of the control response that was lost under treatment. Broadly, the IC50 is the concentration at which inhibition is half-maximal. Read a low IC50 as higher potency. One may read the EC50 as the concentration that produces a half-maximal response. As usually defined, the half-life is how long it takes for the measured level to halve. Read a low half-life as rapid decline.

Series [1] addresses Melanin-concentrating hormone receptor 2 (Homo sapiens) (UniProt Q969V1). Put plainly: Inhibition of 125I-[Phe13,Tyr19]-MCHbinding to human MCH-R2. The note with it: concentration not given here.
The target in series [2] is T1, Melanin-concentrating hormone receptor 1 (Homo sapiens, UniProt Q99705). Put plainly: Displacement of 125I-[Phe13,Tyr19]-MCH from human MCH-R1. In general terms: Displacement assays read how much labelled ligand stays bound in the presence of the test substance.
In series [3] the target is T2, Melanin-concentrating hormone receptor 1 (Rattus norvegicus, UniProt P97639). Put plainly: […] of IP3-coupled mobilization of calcium in HEK293 cells expressing rat MCH-R1. It counts as functional, cell-based.
Series [4] is described as follows: Volume of distribution in rats. It counts as ADME, organism-based. The note with it: rat, in vivo; read-out: Vdss.
Series [5] is described as follows: Half-life in rats. It counts as ADME, organism-based. The following applies: rat, in vivo.
The species named for a further series is Rattus norvegicus. Put plainly: Decreased overnight food intake in continuously infused rats on high-fat diet. It counts as functional.
A short description of series [6]: Rat Clp. It counts as ADME, organism-based. The note with it: plasma, read-out: Clp.
Series [7] addresses T2, Melanin-concentrating hormone receptor 1. The experiment in a line: Displacement of 125I-[Phe13,Tyr19]-MCH from rat MCH-R1.
Series [8] addresses Melanin-concentrating hormone receptor 1 (Rattus norvegicus) (UniProt P97639). Put plainly: Inhibition of 125I-[Phe13,Tyr19]-MCH binding to rat MCH-R1 at 5uM.
The target of series [9] is T1, Melanin-concentrating hormone receptor 1. The experiment in a line: Inhibition of 125I-[Phe13,Tyr19]-MCH binding to human MCH-R1 at 5uM.

T2 sequence (P97639 whole entry): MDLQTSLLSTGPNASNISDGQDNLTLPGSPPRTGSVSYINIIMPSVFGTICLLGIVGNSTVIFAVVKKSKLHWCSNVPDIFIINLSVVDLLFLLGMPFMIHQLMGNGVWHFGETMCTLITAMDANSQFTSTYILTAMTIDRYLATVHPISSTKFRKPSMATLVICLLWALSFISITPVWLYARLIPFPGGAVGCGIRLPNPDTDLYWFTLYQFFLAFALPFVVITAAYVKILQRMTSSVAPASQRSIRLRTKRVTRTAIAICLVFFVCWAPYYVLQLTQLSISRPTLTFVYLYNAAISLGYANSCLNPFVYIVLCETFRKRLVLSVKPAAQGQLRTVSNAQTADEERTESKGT
Chain of Melanin-concentrating hormone receptor 2 (Homo sapiens) (Q969V1 whole entry): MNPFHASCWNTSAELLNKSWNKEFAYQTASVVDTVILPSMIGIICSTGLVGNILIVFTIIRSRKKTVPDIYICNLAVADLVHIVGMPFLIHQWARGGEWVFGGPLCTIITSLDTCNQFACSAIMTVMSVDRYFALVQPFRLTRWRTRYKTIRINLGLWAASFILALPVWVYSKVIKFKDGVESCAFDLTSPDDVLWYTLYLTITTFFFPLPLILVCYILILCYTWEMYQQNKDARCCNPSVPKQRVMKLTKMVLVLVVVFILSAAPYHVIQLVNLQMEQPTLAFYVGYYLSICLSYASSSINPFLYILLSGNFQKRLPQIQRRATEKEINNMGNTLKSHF
T1 sequence (Q99705 whole entry): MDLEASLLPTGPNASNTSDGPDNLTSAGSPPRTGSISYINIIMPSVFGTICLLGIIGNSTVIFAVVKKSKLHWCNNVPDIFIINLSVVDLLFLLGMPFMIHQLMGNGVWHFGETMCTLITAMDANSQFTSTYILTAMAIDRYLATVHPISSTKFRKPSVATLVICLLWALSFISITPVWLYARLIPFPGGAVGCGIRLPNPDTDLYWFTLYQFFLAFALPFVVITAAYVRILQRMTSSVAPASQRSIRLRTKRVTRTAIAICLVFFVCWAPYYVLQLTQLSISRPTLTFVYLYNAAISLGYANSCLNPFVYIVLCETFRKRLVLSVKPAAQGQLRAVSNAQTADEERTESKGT
Chain of Melanin-concentrating hormone receptor 1 (Rattus norvegicus) (P97639 whole entry): as the sequence (P97639 whole entry) above

In series [1], `O=C(CCc1ccc(C(F)(F)F)cc1)Nc1ccc2nc(N3CCCC3)ccc2c1` displayed an inhibition of under 50%. Also, the IC50 in series [2] amounted to 3 nM. Besides, the EC50 in series [3] and in series [3] (hek293) was 320 nM throughout.
Regarding `O=C(CCCCCCCCCCCCc1ccc(C(F)(F)F)cc1)Nc1ccc2nc([N+]34CCC(CC3)CC4)ccc2c1`, the IC50 in [2] worked out at 5 nM; in series [7], 13 nM. Also, the Vd in series [4] was 1 L/kg. This compound gave a half-life in series [5] of 36 min. The compound also showed a Reduced food intake in the series listed under Rattus norvegicus of 26%. For the same compound, the EC50 in [3] was found to be 25 nM. In series [6], the clearance stood at 36 mL/min/kg.
On to `O=C(CCc1ccc(C(F)(F)F)cc1)Nc1ccc2nc(N3CC4CCC3CC4)ccc2c1`, for which, in [1], the inhibition is under 50%. The IC50 in [2] is 3 nM. Besides, in series [3], the EC50 was determined as 190 nM.
In turn, `O=C(CCc1ccc(C(F)(F)F)cc1)Nc1ccc2nc(N3CC4CC3CN4)ccc2c1` (stereo unspecified) had a 50% inhibitory concentration (IC50) in series [2] of 210 nM. Moreover, in series [3], the EC50 worked out at 490 nM.
In the case of `CN(c1ccc2cc(NC(=O)CCc3ccc(C(F)(F)F)cc3)ccc2n1)C1CCCC1`, the inhibition in [1] was under 50%. In series [2], this compound showed an IC50 of 2 nM. Also, in series [3], the EC50 came to 350 nM.
In turn, `CCCN(C)c1ccc2cc(NC(=O)CCc3ccc(C(F)(F)F)cc3)ccc2n1` showed an inhibition in [1] of under 50%. Also, in series [2], the 50% inhibitory concentration (IC50) amounted to 10 nM. The EC50 in series [3] came to 140 nM.
For `O=C(CCc1ccc(C(F)(F)F)cc1)Nc1ccc2nc(N3CC4CCC3C4)ccc2c1` (stereo unspecified), the IC50 in series [2] amounted to 1 nM. Moreover, the EC50 in [3] was 150 nM.
On to `O=C(CCc1ccc(C(F)(F)F)cc1)Nc1ccc2nc(N3CCC3)ccc2c1`, for which the inhibition in series [1] was under 50%. This compound also showed an IC50 in [2] of 4 nM. Also, the EC50 in series [3] is 56 nM.
Turning to `CN(c1ccccc1)c1ccc2cc(NC(=O)CCc3ccc(C(F)(F)F)cc3)ccc2n1`, the inhibition in series [1] was under 50%. Further, in series [2], the IC50 was 3700 nM.
The compound `COC(=O)C1CCCN1c1ccc2cc(NC(=O)CCc3ccc(C(F)(F)F)cc3)ccc2n1` (stereo unspecified) gave an IC50 in series [2] of 800 nM. For the same compound, the EC50 in series [3] was determined as 580 nM.
For `O=C(CCc1ccc(C(F)(F)F)cc1)Nc1ccc2nc(N3CCC(NC(=O)c4ccccc4)C3)ccc2c1` (stereo unspecified) the same measures were 10 nM and 110 nM.
For `O=C(Nc1ccc2nc([N+]34CCC(CC3)CC4)ccc2c1)c1ccc(C(F)(F)F)nc1`, the inhibition in series [8] turned out to be 20%; in series [9], 30%. For the same compound, in [4], the Vd worked out at 3.92 L/kg. This compound showed a half-life in series [5] of 66 min. Moreover, the half-maximal effective concentration (EC50) in series [3] is over 10000 nM. The clearance in series [6] stood at 57 mL/min/kg.
For the compound `CN(C)c1ccc2cc(NC(=O)CCc3ccc(C(F)(F)F)cc3)ccc2n1`, the inhibition in series [1] was under 50%. In [2], the IC50 is 13 nM. Also, the EC50 in [3] worked out at 110 nM.
In series [2], `CC(=O)NC1CCN(c2ccc3cc(NC(=O)CCc4ccc(C(F)(F)F)cc4)ccc3n2)C1` (stereo unspecified) registered an IC50 of 5 nM. Moreover, in [3], the EC50 came out at 440 nM.
`CCCc1cc(N(C)C)c2cc(NC(=O)CCc3ccc(C(F)(F)F)cc3)ccc2n1` had an IC50 in [2] of 12 nM.
In turn, `CN(c1ccc2cc(NC(=O)CCc3ccc(C(F)(F)F)cc3)ccc2n1)C1CCCCC1` gave an inhibition in [1] of under 50%. Moreover, the IC50 in series [2] was determined as 18 nM. The EC50 in series [3] worked out at 1200 nM.
In series [1], `O=C(CCc1ccc(C(F)(F)F)cc1)Nc1ccc2nc(N3CCCCCC3)ccc2c1` had an inhibition of under 50%. For the same compound, the IC50 in series [2] is 36 nM. The concentration giving a half-maximal response (EC50) in series [3] was 1800 nM.
Taken in the same sequence, the figures for `Nc1ccc2cc(NC(=O)CCc3ccc(C(F)(F)F)cc3)ccc2n1` were under 50%, 240 nM and 720 nM.
In the case of `CC1CCCN1c1ccc2cc(NC(=O)CCc3ccc(C(F)(F)F)cc3)ccc2n1` (stereo unspecified), in series [2], the IC50 turned out to be 5 nM. For the same compound, the EC50 in series [3] stood at 270 nM.
As to `O=C(CCc1ccc(C(F)(F)F)cc1)Nc1ccc2nc(N3CCC(c4ccccc4)C3)ccc2c1` (stereo unspecified), in series [2], the half-inhibitory concentration (IC50) is 25 nM. Also, in series [3], the EC50 came to 1770 nM.
In series [1], `CNc1ccc2cc(NC(=O)CCc3ccc(C(F)(F)F)cc3)ccc2n1` came in with an inhibition of under 50%. The same compound registered an IC50 in [2] of 20 nM. Further, the half-maximal effective concentration (EC50) in series [3] was 330 nM.
The compound `O=C(CCc1ccc(C(F)(F)F)cc1)Nc1ccc2nc(N3CCC4(CCNC4)C3)ccc2c1` (stereo unspecified) showed an IC50 in series [2] of 0.5 nM. In addition, in series [3], the EC50 worked out at 140 nM.
Regarding `CS(=O)(=O)NC1CCN(c2ccc3cc(NC(=O)CCc4ccc(C(F)(F)F)cc4)ccc3n2)C1` (stereo unspecified), the IC50 in series [2] was determined as 3 nM. For the same compound, the concentration giving a half-maximal response (EC50) in [3] is 50 nM.
For `CCN(CC)c1ccc2cc(NC(=O)CCc3ccc(C(F)(F)F)cc3)ccc2n1`, the inhibition in series [1] is under 50%. Also, the IC50 in series [2] came to 88 nM. The EC50 in series [3] worked out at 830 nM.
In series [2], `CC(C)C(=O)NC1CCN(c2ccc3cc(NC(=O)CCc4ccc(C(F)(F)F)cc4)ccc3n2)C1` (stereo unspecified) yielded an IC50 of 1 nM. Besides, the EC50 in [3] was 90 nM.
The compound `O=C(CCc1ccc(C(F)(F)F)cc1)Nc1ccc2nc(N3CC4CC3CO4)ccc2c1` (stereo unspecified) returned an IC50 in series [2] of 13 nM. In addition, in [3], the EC50 amounted to 70 nM.
As to `CC(C)N(C)c1ccc2cc(NC(=O)CCc3ccc(C(F)(F)F)cc3)ccc2n1`, the inhibition in series [1] was under 50%. This compound also showed a half-maximal inhibitory concentration (IC50) in series [2] of 2 nM. The half-maximal effective concentration (EC50) in series [3] was 140 nM.
On to `NC1CCN(c2ccc3cc(NC(=O)CCc4ccc(C(F)(F)F)cc4)ccc3n2)C1` (stereo unspecified), for which the half-inhibitory concentration (IC50) in series [2] was 12 nM. Moreover, the EC50 in [3] came to 200 nM.
`CC1CCN(c2ccc3cc(NC(=O)CCc4ccc(C(F)(F)F)cc4)ccc3n2)C1` (stereo unspecified): the IC50 in [2] amounted to 2 nM. Further, the 50% effective concentration (EC50) in series [3] was 400 nM.
In series [1], `CCCN(CCC)c1ccc2cc(NC(=O)CCc3ccc(C(F)(F)F)cc3)ccc2n1` returned an inhibition of under 50%. Moreover, in series [2], the IC50 came to 490 nM.
On to `O=C(CCc1ccc(C(F)(F)F)cc1)Nc1ccc2nc(N3CCCCC3)ccc2c1`, for which the inhibition in [1] was under 50%. The IC50 in series [2] turned out to be 12 nM. Moreover, the EC50 in [3] was found to be 110 nM.
Compound `CNC(=O)NC1CCN(c2ccc3cc(NC(=O)CCc4ccc(C(F)(F)F)cc4)ccc3n2)C1` (stereo unspecified) showed an IC50 in [2] of 6 nM. In [3], the half-maximal effective concentration (EC50) is 30 nM.
